Source: patent US20130324617A1, “CROWN-LIKE STRUCTURES AS A BIOMARKER FOR CANCER RISK AND CANCER PROGNOSIS” (MEMORIAL SLOAN-KETTERING CANCER CENTER, priority 2011, published 2013)

Experiments:
[1] = system: THP-1 cells; experiment: Pro-inflammatory mediators (TNF-α, IL-1β, Cox-2, PGE2) in saturated fatty acid-treated THP-1 cells; type: cell-based, human; conditions: for induction of TNF-α in THP-1 cells: 0, 2.5, 5, 10 μmol/L saturated fatty acid, 24 hours, real-time PCR
Method: (§1) THP-1 cells (ATCC) were maintained in RPMI-1640 medium (Invitrogen) supplemented with 10% FBS. These cells were treated with phorbol 12-myristate 13-acetate (10 ng/mL) overnight to differentiate them into macrophages. Human monocytes (Astarte Biologics) were activated with IFNγ (15 ng/mL) and lipopolysaccharide (15 ng/mL) in RPMI-1640 medium for 4 days. THP-1 cells and blood monocyte-derived macrophages were then treated with saturated fatty acids (Nu-CheK Prep) as indicated. To prepare conditioned medium (CM), the cells were treated with saturated fatty acids for 12 hours in medium comprised of RPMI-1640 and preadipocyte medium (ScienCellTMResearch Laboratories) at a 1:1 ratio. Following treatment with fatty acids, the medium was removed and cells were washed thrice with PBS to remove fatty acids. Subsequently, fresh medium was added for 24 hours. This CM was then collected and centrifuged at 4,000 rpm for 30 minutes to remove cell debris. CM was used to treat preadipocytes.
(§2) Lysates were prepared by treating cells with lysis buffer, sonicating for 20 seconds on ice and centrifuging at 10,000×g for 10 minutes to remove particulate material. The protein concentration of the supernatant was measured by the method of Lowry et al. (Lowry 1951). SDS-PAGE was done under reducing conditions on 10% polyacrylamide gels. The resolved proteins were transferred onto nitrocellulose sheets and incubated with primary antisera. Antibodies to phospho-p65, p65, histone H3, Cox-2 and β-actin were used (Santa Cruz Biotechnology). Secondary antibody to IgG conjugated to horseradish peroxidase was used. The blot was probed with the ECL Western blot detection system.
(§3) Total RNA was isolated using the RNeasy mini kit (Qiagen). For tissue analyses, poly A RNA was prepared with an Oligotex mRNA mini kit (Qiagen). Poly A RNA was reversed transcribed using murine leukemia virus reverse transcriptase and oligo (dT)16 primer. The resulting cDNA was then used for amplification using primers listed Table 1. GAPDH and β-actin were used as endogenous normalization controls for tissue and cell culture analyses, respectively. Real-time PCR was performed using 2×SYBR green PCR master mix on a 7500 Real-time PCR system (Applied Biosystems). Relative fold induction was determined using the ddCT (relative quantification) analysis protocol.
LC/MS/MS analyses were performed using a Tandem Quadrupole Mass Spectrometer (Agilent) equipped with an Agilent 1200 binary pump HPLC system using a modified version of the method of Yang 2006. PGs were chromatographically separated using a Gemini 3-μm C6-phenyl 4.6×100 mm analytical column (Phenomenex). The mobile phase consisted of 0.1% formic acid in water (mobile phase A) and 0.1% formic acid in acetonitrile (mobile phase B). The chromatographic baseline resolution for the PGs of interest was achieved using a linear gradient that went from 20% to 40% mobile phase B for 12 minutes and then from 40% to 70% for 8 minutes. This was then increased to 90% mobile phase B over the next 2 minutes and kept at this level for an additional 3 minutes. The flow rate was 0.8 mL/min with a column temperature of 40° C. The mass spectrometer was operated in negative electrospray ionization mode with capillary voltage of 2.9 kV, a cone gas flow rate of […] and a shear gas flow rate of 12 mL/minute at 350° C. PGs were detected and quantified using multiple reaction mode monitoring of the transitions m/z 351 to 271 for PGE2 and m/z 355 to 275 for PGE2-d4. The results are expressed as nanograms of PGE2 per mg of protein. For measurements of PGE2 in cell culture media, EIA kits were used (Cayman Chemicals).
TNF-α and IL-1β levels were quantified in cell culture media using EIA kits (R & D systems).
Experiments were carried out in vitro to determine if saturated fatty acids stimulated the production of pro-inflammatory molecules by macrophages leading, in turn, to elevated aromatase expression in preadipocytes.

[2] = system: aromatase in human preadipocytes; experiment: Induction of aromatase mRNA and activity in preadipocytes by macrophage-derived conditioned medium; type: cell-based; conditions: for aromatase mRNA and activity in human preadipocytes: preadipocytes treated 24 hours
Method: Human visceral preadipocytes (ScienCell™) were grown in preadipocyte medium containing 10% FBS.
as §1, §3
To determine aromatase activity, microsomes were prepared from cell lysates and tissues by differential centrifugation using established methods (Subbaramaiah 2006). Aromatase activity was quantified by measurement of the tritiated water released from 1β-[^3H]-androstenedione (Subbaramaiah 2008). The reaction was also performed in the presence of letrozole, a specific aromatase inhibitor, as a specificity control and without NADPH as a background control. Aromatase activity was normalized to protein concentration.
Further, to investigate whether conditioned medium from saturated fatty acid-treated macrophages induced aromatase in preadipocytes, THP-1 cells or human blood monocyte-derived macrophages were treated with 0, 2.5, 5 or 10 μmol/L LA, MA, PA or SA as described above to generate CM (n=6). This CM was used to treat preadipocytes for 24 hours. Aromatase mRNA and activity levels were determined. Treatment with CM derived from either saturated fatty acid-treated THP-1 cells or human blood monocyte-derived macrophages induced aromatase mRNA and activity in human preadipocytes. Neutralizing either TNF-α or IL-1β by incubating the CM from SA-treated cells with neutralizing antibodies to TNF-α, IL-1β or control IgG overnight at 4° C. attenuated CM-mediated induction of aromatase in preadipocytes.
Next, THP-1 cells were transfected as indicated with control siRNA or TNF-α siRNA, IL-1β siRNA or Cox-2 siRNA for 36 hours. Cells were then treated with vehicle (control) or 10 μmol/L SA as described above. The levels of TNFα, IL-1β and PGE2 were measured by enzyme immunoassay in the CM. Cox-2 protein abundance was determined by immunoblotting of whole cell lysates using β-actin was used as a loading control. Preadipocytes were treated with THP-1 cell-derived CM for 24 hours prior to measurements of aromatase mRNA and activity. […] Following treatment, the medium was removed and cells were washed. Subsequently, fresh medium was added for 24 hours to generate CM. PGE2 production was measured in CM. Preadipocytes were treated with THP-1 cell-derived CM for 24 hours prior to measurements of aromatase mRNA and activity. […]

[3] = system: NF-κB; experiment: NF-κB-luciferase reporter assay in THP-1 cells; type: cell-based, human; conditions: for NF-κB-luciferase activity in THP-1 cells: 10 μmol/L fatty acid, 24 hours
Method: NF-κB-luciferase (Panomics) and pSVβgal (Promega) were transfected into THP-1 cells using the Amaxa system. After 24 hours of incubation, the medium was replaced with basal medium. The activities of luciferase (BD Biosciences) and β-galactosidase were measured in cellular extracts. For siRNA transfections, THP-1 cells were plated at 60% confluence and transfected with non-targeting siRNA or siRNA targeting TNF-α, IL-1β, Cox-2 and p65 using Dharmafect 4 for 36 hours. Subsequently, the cells were treated with vehicle or saturated fatty acids.
To investigate the potential role of the transcription factor NF-κB in saturated fatty acid-mediated induction of TNF-α, IL-1β and Cox-2 in macrophages, transient transfection assays were performed in saturated fatty acid-treated THP-1 cells with an NF-κB-luciferase reporter construct and pSV-βgal constructs.
The effects of BAY11-7082, a pharmacological inhibitor of NF-κB, were evaluated. THP-1 cells were transiently transfected with NF-κB-luciferase and pSV-βgal constructs and cells were subsequently treated with vehicle, 10 μmol/L SA or SA plus 0, 5 or 10 μmol/L of BAY11-7082 (InvivoGen) for 12 hours. NF-κB luciferase activity was normalized to β-galactosidase activity. Additionally, THP-1 cells were treated with vehicle (control), 10 μmol/L SA or SA plus 10 μmol/L BAY11-7082 for 24 hours. Levels of TNF-α protein, IL-1β protein and PGE2 in the CM were determined by enzyme immunoassay. Preadipocytes were treated with THP-1 cell-derived CM for 24 hours prior to measurements of aromatase mRNA and activity.

[4] = system: p65; experiment: Immunoblotting of phospho-p65 and p65 in THP-1 cells; type: cell-based, human; conditions: 30 minutes; for phosphorylation of p65: THP-1 cells, 0, 2.5, 5 or 10 μmol/L fatty acid
Method: as §2
The abundance of phospho-p65 was determined by immunoblotting in cytosolic and nuclear preparations of cells treated with vehicle (control) or 10 μmol/L SA for 30 minutes. β-actin and histone H3 were used as cytosolic and nuclear markers, respectively.

[5] = system: NF-κB binding sites; experiment: Electrophoretic mobility shift assay of nuclear protein from THP-1 cells; type: cell-based, human; conditions: THP-1 cells, 0, 2.5, 5 or 10 μmol/L SA, 1 hour; EMSA
Method: Nuclear extracts were prepared from mouse mammary glands using an EMSA kit (Promega). For binding studies, oligonucleotides containing NF-κB sites (Active Motif) were used. The complementary oligonucleotides were annealed in 20 mmol/L Tris (pH 7.6), 50 mmol/L NaCl, 10 mmol/L MgCl2, and 1 mmol/L dithiothreitol. The annealed oligonucleotide was phosphorylated at the 5′ end with [γ-^32P]ATP and T4 polynucleotide kinase. The binding reaction was performed by incubating 5 μg of nuclear protein in 20 mmol/L HEPES (pH 7.9), 10% glycerol, 300 μg of bovine serum albumin, and 1 μg of poly(dI·dC) in a final volume of 10 μL for 10 minutes at 25° C. The labeled oligonucleotides were added to the reaction mixture and allowed to incubate for an additional 20 minutes at 25° C. The samples were electrophoresed on a 4% nondenaturing polyacrylamide gel. The gel was then dried and subjected to autoradiography at −80° C.
DNA-protein binding complexes to NF-κB binding sites were examined by electrophoretic mobility shift assays (EMSA). Nuclear protein was prepared from THP-1 cells treated with 0, 2.5, 5 or 10 μmol/L of SA for 1 hour. In another experiment, nuclear protein was prepared from THP-1 cells treated with vehicle or 10 μmol/L SA for 1 hour, and the nuclear protein was incubated with normal IgG or different concentrations of antibodies to p65. […]

[6] = CM from THP-1 cells treated with 0, 2.5, 5 or 10 μmol/L fatty acid
[7] = CM from human blood monocyte-derived macrophages treated with 0, 2.5, 5 or 10 μmol/L fatty acid
[8] = 10 μmol/L SA plus 10 μmol/L BAY11-7082, 24 hours, enzyme immunoassay

Row | Compound | induction of TNF-α in THP-1 cells [1] | aromatase mRNA and activity in human preadipocytes [2, 6] | aromatase mRNA and activity in human preadipocytes [2, 7] | NF-κB-luciferase activity in THP-1 cells [3] | phosphorylation of p65 [4] | binding of nuclear protein to a 32P-labeled NF-κB consensus sequence [5] | translocation of p65 from cytosol to nucleus ([4]; THP-1 cells, 10 μmol/L SA) | production of increased amounts of IL-1β in CM [1, 8] | production of increased amounts of PGE2 in CM [1, 8] | production of increased amounts of TNF-α in CM [1, 8] | ability of macrophage-derived CM to induce aromatase expression and activity ([2]; following NF-κB inhibition of THP-1 cells with BAY11-7082, preadipocytes treated with CM 24 hours) | SA-mediated activation of NF-κB (NF-κB luciferase activity) ([3]; 10 μmol/L SA plus 0, 5 or 10 μmol/L BAY11-7082, 12 hours)
1 | CCCCCCCCCCCCCCCC(=O)O [PA, palmitic acid] | dose-dependent induction | induced | induced | induced | stimulated |  |  |  |  |  |  | 
2 | CCCCCCCCCCCCCCCCCC(=O)O [SA, stearic acid] | dose-dependent induction | induced | induced | induced | stimulated | stimulated | stimulated |  |  |  |  | 
3 | CCCCCCCCCCCCCC(=O)O [MA, myristic acid] | dose-dependent induction | induced | induced |  |  |  |  |  |  |  |  | 
4 | CCCCCCCCCCCC(=O)O [LA, lauric acid] | dose-dependent induction | induced | induced |  |  |  |  |  |  |  |  | 
5 | Cc1ccc(S(=O)(=O)/C=C/C#N)cc1 [BAY11-7082] |  |  |  |  |  |  |  | suppressed | suppressed | suppressed | suppressed | suppressed
